The structures appear in SMILES notation. Structures can show the parent of a compound that is named as a salt.

This note sets out measurements from patent US20120302569A1, “PHENYL-THIAZOLYL INHIBITORS OF PRO-MATRIX METALLOPROTEINASE ACTIVATION” (priority 2011, published 2012).

For test [1], the target named is T1, proMMP9(20-445;ΔFnII) (SEQ ID NO:6) (Homo sapiens, UniProt P14780, DEL216-390).
T1 construct: start methionine (N); made in house; host or cells: E. coli BL21(DE3) RIL
T1 sequence (P14780 with tags, fused parts or gaps DEL216-390): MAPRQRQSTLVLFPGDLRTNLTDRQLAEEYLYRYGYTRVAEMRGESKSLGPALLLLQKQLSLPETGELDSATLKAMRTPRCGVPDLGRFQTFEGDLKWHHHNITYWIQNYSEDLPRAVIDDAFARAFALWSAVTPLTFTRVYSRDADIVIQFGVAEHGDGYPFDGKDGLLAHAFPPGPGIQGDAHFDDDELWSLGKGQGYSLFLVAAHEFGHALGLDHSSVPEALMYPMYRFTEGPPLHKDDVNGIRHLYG
In words: ThermoFluor with proMMP9(20-445;ΔFnII). The conditions noted are these: read-out: proMMP9(20-445; ΔFnII) (SEQ ID NO: 6) binding. In a few lines:
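Thermal shift of 2.8 μM desalted proMMP9(20-445;ΔFnII) with 50 μM 1,8-ANS in 50 mM HEPES pH 7.0, NaCl, Tween-20, MgCl2, CaCl2; heated 40-90 °C at 1 °C/min, emission 500 nm. Tm from fitted curves; binding fit using DSC/ThermoFluor-derived unfolding parameters for 11-point compound dilutions.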
A general note: DSF heats the sample and reads unfolding from a dye or from intrinsic fluorescence.

For test [2], the target named is T2, proMMP9(67-444;ΔFnII) (SEQ ID NO:5) (Homo sapiens, UniProt P14780, DEL216-390).
T2 construct: start methionine (N); made in house; host or cells: E. coli BL21(DE3) RIL
T2 sequence (P14780 with tags, fused parts or gaps DEL216-390): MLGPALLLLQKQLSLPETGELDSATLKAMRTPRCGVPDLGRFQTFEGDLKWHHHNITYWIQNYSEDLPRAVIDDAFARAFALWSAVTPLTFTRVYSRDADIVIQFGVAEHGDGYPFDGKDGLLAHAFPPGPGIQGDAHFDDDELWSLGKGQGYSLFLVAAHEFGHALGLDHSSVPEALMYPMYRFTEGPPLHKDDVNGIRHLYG
Briefly: ThermoFluor with proMMP9(67-444;ΔFnII). The conditions noted are these: read-out: proMMP9(67-444; ΔFnII) (SEQ ID NO: 5) binding. In a few lines: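 Thermal shift with 3.5 μM protein and 50 μM 1,8-ANS in 50 mM HEPES pH 7.0, 100 mM NaCl, 0.001% Tween-20, 2.5 mM MgCl2, 300 μM CaCl2, heated 40–90 °C at 1 °C/min. Fluorescence (500±25 nm) fit to yield Tm; binding fitted using DSC/ThermoFluor-derived thermodynamic parameters, compounds dosed as serial dilutions.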

Test [3] addresses T3, full-length proMMP9(1-707) (SEQ ID NO:1) (Homo sapiens, UniProt P14780, R574P).
T3 construct: made in house; host or cells: HEK293 (proMMP9, secreted); E. coli (MMP3)
In words: proMMP9/MMP3 P126 Activation Assay. The conditions noted are these: proMMP9(1-707) from HEK293 cells activated by catalytic MMP3. Format: biochemical. On the procedure: proMMP9/MMP3 P126 Activation Assay
The reaction volume was 50 μL. […] Reactivity of residual MMP3 towards P-126 substrate was minimal under these conditions.

Test [4] has as its target T4, proMMP13(1-268) (SEQ ID NO:7) (Homo sapiens, UniProt P45452).
T4 construct: 6×-histidine tag (C); made in house; host or cells: HEK293 (transient transfection, secreted)
Briefly: ProMMP13/Plasmin P126 Activation Assay. Format: biochemical. The conditions noted are these: proMMP13(1-268) activated by plasmin. On the procedure:
ProMMP13/Plasmin P126 Activation Assay
On the day of assay, proMMP13(1-268) (SEQ ID NO:7) purified from HEK293 cells and plasmin were diluted to 160 nM and 320 nM, respectively, in assay buffer. The reaction volume was 50 μL. […] The plate was sealed and incubated for 40 min at 37° C. […] Plasmin was not reactive towards P-126 substrate under these conditions.

T3 sequence (P14780 20-707 R574P): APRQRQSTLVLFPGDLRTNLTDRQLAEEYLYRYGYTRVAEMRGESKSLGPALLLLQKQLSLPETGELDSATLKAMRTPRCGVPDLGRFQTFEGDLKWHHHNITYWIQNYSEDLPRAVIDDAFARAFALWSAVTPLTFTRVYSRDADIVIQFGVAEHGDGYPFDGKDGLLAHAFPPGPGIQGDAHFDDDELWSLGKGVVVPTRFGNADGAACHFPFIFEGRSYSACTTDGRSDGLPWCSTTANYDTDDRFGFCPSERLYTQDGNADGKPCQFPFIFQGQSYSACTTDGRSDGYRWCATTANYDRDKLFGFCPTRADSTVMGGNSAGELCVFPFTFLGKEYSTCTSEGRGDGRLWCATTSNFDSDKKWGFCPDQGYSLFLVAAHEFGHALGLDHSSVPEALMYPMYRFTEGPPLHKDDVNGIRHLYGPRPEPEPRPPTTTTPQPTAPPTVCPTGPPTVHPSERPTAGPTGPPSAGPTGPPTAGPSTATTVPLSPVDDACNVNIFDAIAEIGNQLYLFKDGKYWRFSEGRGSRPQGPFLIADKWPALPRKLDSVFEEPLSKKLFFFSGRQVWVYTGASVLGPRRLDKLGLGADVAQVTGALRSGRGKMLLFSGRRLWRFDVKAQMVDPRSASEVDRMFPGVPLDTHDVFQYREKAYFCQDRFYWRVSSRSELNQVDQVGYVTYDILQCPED

By IC50 is commonly meant the concentration needed to halve the response being measured. With `CC(C)Oc1ccc(C(N)=O)cc1Nc1nc(-c2ccc(OCCN3CCN(C4CC4)CC3)cc2)cs1` [Example 44, 3-((4-(4-(2-(4-cyclopropylpiperazin-1-yl)ethoxy)phenyl)thiazol-2-yl)amino)-4-isopropoxybenzamide.TFA], the Kd in test [1] came to 0.024 µM; in test [2], 0.11 µM. Besides, the values for the IC50 in test [3] and in test [4] were 0.043 µM and 0.52 µM, respectively.
For `COc1ccc(F)cc1Nc1nc(-c2ccc(OCCN3CCN(C)CC3)cc2)cs1` [Example 69, N-(5-fluoro-2-methoxyphenyl)-4-(4-(2-(4-methylpiperazin-1-yl)ethoxy)phenyl)thiazol-2-amine.TFA] the same measures were 1.5 µM, 0.36 µM, 0.09 µM and 4.3 µM.
For `CC(C)Oc1ccc(S(N)(=O)=O)cc1Nc1nc(-c2ccc(CN3CCN(C)CC3)cc2)cs1` [Example 49, 4-isopropoxy-3-((4-(4-((4-methylpiperazin-1-yl)methyl)phenyl)thiazol-2-yl)amino)benzenesulfonamide.TFA] the same measures were 0.026 µM, 0.04 µM, 0.18 µM and 3.4 µM.
With `CC(C)Oc1ccc(C(N)=O)cc1Nc1nc(-c2ccc(N3CCN(C(C)C)CC3)cc2)cs1` [Example 10, 4-Isopropoxy-3-((4-(4-(4-isopropylpiperazin-1-yl)phenyl)thiazol-2-yl)amino)benzamide.HCl], the Kd in test [1] stood at 0.017 µM; in test [2], 0.033 µM. Also, the IC50 was 0.05 µM in test [3] and 0.12 µM in test [4].
For `CC(C)Oc1ccc(S(N)(=O)=O)cc1Nc1nc(-c2ccc(OCCCN3CCOCC3)cc2)cs1` [Example 47, 4-isopropoxy-3-((4-(4-(3-morpholinopropoxy)phenyl)thiazol-2-yl)amino)benzenesulfonamide.TFA] the same measures were 0.032 µM, 0.077 µM, 0.076 µM and 0.6 µM.
As to `CC(C)Oc1ccc(S(N)(=O)=O)cc1Nc1nc(-c2ccc(C3=CCN(C)CC3)cc2)cs1` [Example 13, 4-Isopropoxy-3-((4-(4-(1-methyl-1,2,3,6-tetrahydropyridin-4-yl)phenyl)thiazol-2-yl)amino)benzenesulfonamide.TFA], the Kd in test [1] was determined as 0.017 µM; in test [2] it was 0.014 µM. Also, the IC50 in test [3] came to 0.024 µM; in test [4] it was 0.19 µM.
The like results for `CC(C)Oc1ccc(C(N)=O)cc1Nc1nc(-c2ccc(CN3CCN(C(C)C)CC3)cc2)cs1` [Example 56, 4-isopropoxy-3-((4-(4-((4-isopropylpiperazin-1-yl)methyl)phenyl)thiazol-2-yl)amino)benzamide.TFA] were, in that order, 0.018 µM, 0.08 µM, 0.1 µM and 0.42 µM.
The like results for `CC(C)Oc1ccc(C(N)=O)cc1Nc1nc(-c2ccc(CN3CCN(C)CC3)cc2)cs1` [Example 48, 4-isopropoxy-3-((4-(4-((4-methylpiperazin-1-yl)methyl)phenyl)thiazol-2-yl)amino)benzamide.TFA] were, in that order, 0.02 µM, 0.099 µM, 0.11 µM and 0.85 µM.
The like results for `CC(C)Oc1ccc(S(N)(=O)=O)cc1Nc1nc(-c2ccc(N3CCNCC3)cc2)cs1` [Example 1, 4-Isopropoxy-3-((4-(4-(piperazin-1-yl)phenyl)thiazol-2-yl)amino)benzenesulfonamide.TFA] were, in that order, 0.015 µM, 0.006 µM, 0.02 µM and 0.23 µM.
Turning to `CC(C)Oc1ccc(C(N)=O)cc1Nc1nc(-c2ccc(C3=CCN(C)CC3)cc2)cs1` [Example 17, 4-Isopropoxy-3-((4-(4-(1-methyl-1,2,3,6-tetrahydropyridin-4-yl)phenyl)thiazol-2-yl)amino)benzamide.TFA], the figures for the Kd in test [1] and in test [2] were 0.011 µM and 0.024 µM, respectively. The values for the IC50 in test [3] and in test [4] were 0.026 µM and 0.091 µM, respectively.
For `CCOc1ccncc1Nc1nc(-c2ccc(C3=CCN(CC)CC3)cc2)cs1` [Example 22, N-(4-Ethoxypyridin-3-yl)-4-(4-(1-ethyl-1,2,3,6-tetrahydropyridin-4-yl)phenyl)thiazol-2-amine.TFA] the same measures were 0.34 µM, 0.036 µM, 0.069 µM and 1.2 µM.
`CC(C)Oc1ccc(S(N)(=O)=O)cc1Nc1nc(-c2ccc(CN3CC[C@@H](F)C3)cc2)cs1` [Example 53, (R)-3-((4-(4-((3-fluoropyrrolidin-1-yl)methyl)phenyl)thiazol-2-yl)amino)-4-isopropoxybenzenesulfonamide.TFA]: the Kd in test [1] came out at 0.058 µM; in test [2] it was 0.095 µM. Further, the IC50 in test [3] amounted to 0.059 µM; in test [4] it was 0.93 µM.
For `CC(C)Oc1ccc(C(N)=O)cc1Nc1nc(-c2ccc(C3=CCN(C(C)C)CC3)cc2)cs1` [Example 19, 4-Isopropoxy-3-((4-(4-(1-isopropyl-1,2,3,6-tetrahydropyridin-4-yl)phenyl)thiazol-2-yl)amino)benzamide.TFA] the same measures were 0.013 µM, 0.021 µM, 0.028 µM and 0.087 µM.
The like results for `CCOc1ccncc1Nc1nc(-c2ccc(C3=CCN(C(C)C)CC3)cc2)cs1` [Example 23, N-(4-Ethoxypyridin-3-yl)-4-(4-(1-isopropyl-1,2,3,6-tetrahydropyridin-4-yl)phenyl)thiazol-2-amine.TFA] were, in that order, 0.51 µM, 0.035 µM, 0.06 µM and 0.85 µM.
The like results for `CC(C)Oc1ccc(S(N)(=O)=O)cc1Nc1nc(-c2ccc(OCCN3CCN(C4CC4)CC3)cc2)cs1` [Example 45, 3-((4-(4-(2-(4-cyclopropylpiperazin-1-yl)ethoxy)phenyl)thiazol-2-yl)amino)-4-isopropoxybenzenesulfonamide.TFA] were, in that order, 0.029 µM, 0.056 µM, 0.041 µM and 0.95 µM.
Take `CC(C)Oc1ccc(S(N)(=O)=O)cc1Nc1nc(-c2ccc(C3=CCNCC3)cc2)cs1` [Example 12, 4-Isopropoxy-3-((4-(4-(1,2,3,6-tetrahydropyridin-4-yl)phenyl)thiazol-2-yl)amino)benzenesulfonamide.TFA]: the Kd amounted to 0.018 µM in test [1] and 0.012 µM in test [2]. Also, the IC50 in test [3] amounted to 0.066 µM; in test [4] it was 0.34 µM.
The like results for `CC(C)Oc1ccc(S(N)(=O)=O)cc1Nc1nc(-c2ccc(N3CCNCC3)c(Br)c2)cs1` [Example 2, 3-((4-(3-Bromo-4-(piperazin-1-yl)phenyl)thiazol-2-yl)amino)-4-isopropoxybenzenesulfonamide.TFA] were, in that order, 0.017 µM, 0.015 µM, 0.067 µM and 0.56 µM.
The like results for `CC(C)Oc1ccc(C(N)=O)cc1Nc1nc(-c2ccc(OCCCN3CCOCC3)cc2)cs1` [Example 46, 4-isopropoxy-3-((4-(4-(3-morpholinopropoxy)phenyl)thiazol-2-yl)amino)benzamide.TFA] were, in that order, 0.02 µM, 0.099 µM, 0.062 µM and 0.34 µM.
For `CC(C)Oc1ccc(S(N)(=O)=O)cc1Nc1nc(-c2ccc(CN3CCN(C(C)C)CC3)cc2)cs1` [Example 57, 4-isopropoxy-3-((4-(4-((4-isopropylpiperazin-1-yl)methyl)phenyl)thiazol-2-yl)amino)benzenesulfonamide.TFA], the results for the IC50 in test [3] and in test [4] were 0.15 µM and 4 µM, respectively.
